{"source": "patent US20260191863A1", "about": "“PYRROLOPYRIMIDINE COMPOSITIONS FOR TREATMENT OF ITK MEDIATED CONDITIONS” (ACLARIS THERAPEUTICS, INC., priority 2022, published 2026)", "key": {"[1]": {"assay": "13 week toxicology and toxicokinetic study in cynomolgus monkeys", "format": "in vivo, cynomolgus monkey", "settings": "for AUC(0-t) / Cmax: in vivo", "excerpt": "Purpose: Evaluation of toxicity and toxicokinetic (TK) for Compound I, following daily dosing for 13 weeks."}, "ITK (IL2 mRNA)": {"system": "ITK (IL2 mRNA)", "assay": "Pre-clinical human whole blood αCD3/28/IL-2 mRNA (2 hr)", "format": "cell-based"}, "[2]": {"assay": "Phase 1 multiple ascending dose (MAD) study: pharmacokinetics", "format": "in vivo, human", "excerpt": "Secondary Endpoints—Compound I plasma concentrations and PK parameters: AUC0-tau, AUC0-inf, Ctrough, Cmax, tmax, Kel, t1/2, CLss/F, Vss/F, Rae.\nOverall Design—This was a randomized, Investigator and participant-blind. Sponsor-unblinded, placebo-controlled study designed to evaluate the safety, tolerability, PK, and PD of Compound I in healthy participants. The study consisted of multiple cohorts assessing ascending doses of Compound I.\nApproximately 60 participants were enrolled into 5 cohorts. At each dose level/cohort, a total of 10 participants were randomized to receive 2 weeks of oral doses of Compound I (n=8) or placebo (n=2). In Cohort 3, 20 participants were randomized to receive multiple oral doses of Compound I QD (n=8), Compound I TID (n=8), placebo QD (n=2), or placebo TID (n=2).\nThe study started with a planned dose of 5 mg twice daily (BID). Escalation to the next higher cohort was dependent on safety and PK data from all participants in the previous cohorts and was based on data from at least 6 participants up to at least 48 hours after the last dose. In no instance did the dose escalation steps exceed 3-fold the prior dose level."}}, "note": "Several values for one entry are separate records, joined by “and”; a condition that tells them apart may be missing. Equal entries are not always repeated. Where two headings read alike, the source gives them in different places.", "data": [{"smiles": "C=CC(=O)N1C[C@H](Nc2ncnc3[nH]cc([C@H]4CC4(F)F)c23)CC[C@@H]1C", "note": "[Compound I, 1-((2S,5R)-5-((5-((R)-2,2-difluorocyclopropyl)-7H-pyrrolo[2,3-d]pyrimidin-4-yl)amino)-2-methylpiperidin-1-yl)prop-2-en-1-one]", "values": [{"measurement": "No observed adverse effect level", "setting": "[1]; cynomolgus monkey, daily dosing 13 weeks", "value": 3, "unit": "mpk"}, {"measurement": "AUC(0-t)", "setting": "[1]; cynomolgus monkey, 3 mg/kg, monkey 3 mpk, Day 1, read-out: AUC0-24", "value": "153 ± 29.1", "unit": "ng·h/mL"}, {"measurement": "Cmax", "setting": "[1]; cynomolgus monkey, 3 mg/kg, monkey 3 mpk, Day 1, read-out: Cmax", "value": "104 ± 48.9", "unit": "ng/mL"}, {"measurement": "AUC(0-t)", "setting": "[1]; cynomolgus monkey, 3 mg/kg, monkey 3 mpk, Day 28, read-out: AUC0-24", "value": "412 ± 191", "unit": "ng·h/mL"}, {"measurement": "Cmax", "setting": "[1]; cynomolgus monkey, 3 mg/kg, monkey 3 mpk, Day 28, read-out: Cmax", "value": "304 ± 156", "unit": "ng/mL"}, {"measurement": "AUC(0-t)", "setting": "[1]; cynomolgus monkey, 3 mg/kg, monkey, NOAEL 3 mpk, read-out: AUC0-24 h at NOAEL", "value": 356, "unit": "ng·h/mL"}, {"measurement": "Cmax", "setting": "[1]; cynomolgus monkey, 3 mg/kg, monkey, NOAEL 3 mpk, read-out: Cmax at NOAEL", "value": 232, "unit": "ng/mL"}, {"measurement": "AUC(0-t)", "setting": "[1]; cynomolgus monkey, 6 mg/kg, monkey 6 mpk, Day 1, read-out: AUC0-24", "value": "692 ± 223", "unit": "ng·h/mL"}, {"measurement": "Cmax", "setting": "[1]; cynomolgus monkey, 6 mg/kg, monkey 6 mpk, Day 1, read-out: Cmax", "value": "401 ± 153", "unit": "ng/mL"}, {"measurement": "AUC(0-t)", "setting": "[1]; cynomolgus monkey, 6 mg/kg, monkey 6 mpk, Day 28, read-out: AUC0-24", "value": "1880 ± 911", "unit": "ng·h/mL"}, {"measurement": "Cmax", "setting": "[1]; cynomolgus monkey, 6 mg/kg, monkey 6 mpk, Day 28, read-out: Cmax", "value": "985 ± 475", "unit": "ng/mL"}, {"measurement": "AUC(0-t)", "setting": "[1]; cynomolgus monkey, 6 mg/kg, monkey 6 mpk, Day 91, read-out: AUC0-24", "value": "1410 ± 6190", "unit": "ng·h/mL"}, {"measurement": "Cmax", "setting": "[1]; cynomolgus monkey, 6 mg/kg, monkey 6 mpk, Day 91, read-out: Cmax", "value": "784 ± 512", "unit": "ng/mL"}, {"measurement": "AUC(0-t)", "setting": "[1]; cynomolgus monkey, 12 mg/kg, monkey 12 mpk, Day 1, read-out: AUC0-24", "value": "2510 ± 1420", "unit": "ng·h/mL"}, {"measurement": "Cmax", "setting": "[1]; cynomolgus monkey, 12 mg/kg, monkey 12 mpk, Day 1, read-out: Cmax", "value": "975 ± 648", "unit": "ng/mL"}, {"measurement": "AUC(0-t)", "setting": "[1]; cynomolgus monkey, 12 mg/kg, monkey 12 mpk, Day 28, read-out: AUC0-24", "value": "6930 ± 3790", "unit": "ng·h/mL"}, {"measurement": "Cmax", "setting": "[1]; cynomolgus monkey, 12 mg/kg, monkey 12 mpk, Day 28, read-out: Cmax", "value": "2160 ± 724", "unit": "ng/mL"}, {"measurement": "AUC(0-t)", "setting": "[1]; cynomolgus monkey, 12 mg/kg, monkey 12 mpk, Day 91, read-out: AUC0-24", "value": "6430 ± 3660", "unit": "ng·h/mL"}, {"measurement": "Cmax", "setting": "[1]; cynomolgus monkey, 12 mg/kg, monkey 12 mpk, Day 91, read-out: Cmax", "value": "1960 ± 677", "unit": "ng/mL"}, {"measurement": "Ratio over time (D 91/D 1) AUC", "setting": "[1]; monkey 3 mpk", "value": 2.4}, {"measurement": "Ratio over time (D 91/D 1) Cmax", "setting": "[1]; monkey 3 mpk", "value": 2.8}, {"measurement": "Ratio over time (D 91/D 1) AUC", "setting": "[1]; monkey 6 mpk", "value": 2.2}, {"measurement": "Ratio over time (D 91/D 1) Cmax", "setting": "[1]; monkey 6 mpk", "value": 2.2}, {"measurement": "Ratio over time (D 91/D 1) AUC", "setting": "[1]; monkey 12 mpk", "value": 2.6}, {"measurement": "Ratio over time (D 91/D 1) Cmax", "setting": "[1]; monkey 12 mpk", "value": 2.5}, {"measurement": "Morbidity / un-scheduled sacrifice", "setting": "[1]; monkey, 12 mpk, 12 mg/kg", "value": "morbidity and significant symptoms necessitating un-scheduled sacrifice and dosing holiday"}, {"measurement": "Effects on body weight (overall), food consumption (overall), clinical pathology in general, anatomic pathology, ophthalmology", "setting": "[1]; monkey, 13 weeks", "value": "No adverse effects observed"}, {"measurement": "Opportunistic infection in GI tract", "setting": "[1]; monkey, 13 weeks", "value": "dose-dependent opportunistic infection in GI tract"}, {"measurement": "Adverse effects", "setting": "[1]; monkey, more significant and persistent in mid/high dose groups", "value": "Liquid and non-formed feces associated with dehydration"}, {"measurement": "Potency relative to Ritlecitinib, αCD3/28/IL-2 mRNA (2 hr)", "setting": "ITK (IL2 mRNA)", "value": "(35 fold*)"}, {"measurement": "IC50", "setting": "ITK (IL2 mRNA); Homo sapiens", "value": "0.0077 µg/mL and 21.3 nM"}, {"measurement": "EC50", "setting": "ITK (IL2 mRNA); Homo sapiens, 2 h, read-out: Human Whole Blood EC50, αCD3/28/IL-2 mRNA (2 hr)", "value": 21, "unit": "nM"}, {"measurement": "EC50", "setting": "ITK (IL2 mRNA); Homo sapiens, read-out: Pre-clinical EC50", "value": "21.3 ± 4.3", "unit": "nM"}, {"measurement": "Geometric Mean Accumulation Ratio - AUCtau (Day 15/Day 1)", "setting": "[2]; Cohort 1, 5 mg BID", "value": 1.2}, {"measurement": "Geometric Mean Accumulation Ratio - Cmax (Day 15/Day 1)", "setting": "[2]; Cohort 1, 5 mg BID", "value": 1.2}, {"measurement": "Geometric Mean HL_Lambda_z", "setting": "[2]; Cohort 1, 5 mg BID, Day 1", "value": 1.51, "unit": "h"}, {"measurement": "Geometric Mean HL_Lambda_z", "setting": "[2]; Cohort 1, 5 mg BID, Day 7", "value": 1.50, "unit": "h"}, {"measurement": "Geometric Mean HL_Lambda_z", "setting": "[2]; Cohort 1, 5 mg BID, Day 15", "value": 1.65, "unit": "h"}, {"measurement": "Geometric Mean Accumulation Ratio - AUCtau (Day 15/Day 1)", "setting": "[2]; Cohort 2, 15 mg BID", "value": 1.6}, {"measurement": "Geometric Mean Accumulation Ratio - Cmax (Day 15/Day 1)", "setting": "[2]; Cohort 2, 15 mg BID", "value": 1.4}, {"measurement": "Geometric Mean HL_Lambda_z", "setting": "[2]; Cohort 2, 15 mg BID, Day 1", "value": 1.53, "unit": "h"}, {"measurement": "Geometric Mean HL_Lambda_z", "setting": "[2]; Cohort 2, 15 mg BID, Day 7", "value": 1.66, "unit": "h"}, {"measurement": "Geometric Mean HL_Lambda_z", "setting": "[2]; Cohort 2, 15 mg BID, Day 15", "value": 1.65, "unit": "h"}, {"measurement": "Geometric Mean Accumulation Ratio - AUCtau (Day 15/Day 1)", "setting": "[2]; Cohort 3a, 30 mg QD", "value": 1.3}, {"measurement": "Geometric Mean Accumulation Ratio - Cmax (Day 15/Day 1)", "setting": "[2]; Cohort 3a, 30 mg QD", "value": 1.1}, {"measurement": "Geometric Mean HL_Lambda_z", "setting": "[2]; Cohort 3a, 30 mg QD, Day 1", "value": 1.90, "unit": "h"}, {"measurement": "Geometric Mean HL_Lambda_z", "setting": "[2]; Cohort 3a, 30 mg QD, Day 7", "value": 1.87, "unit": "h"}, {"measurement": "Geometric Mean HL_Lambda_z", "setting": "[2]; Cohort 3a, 30 mg QD, Day 15", "value": 1.93, "unit": "h"}, {"measurement": "Geometric Mean Accumulation Ratio - AUCtau (Day 15/Day 1)", "setting": "[2]; Cohort 4, 25 mg BID", "value": 1.4}, {"measurement": "Geometric Mean Accumulation Ratio - Cmax (Day 15/Day 1)", "setting": "[2]; Cohort 4, 25 mg BID", "value": 1.3}, {"measurement": "Geometric Mean HL_Lambda_z", "setting": "[2]; Cohort 4, 25 mg BID, Day 1", "value": 1.70, "unit": "h"}, {"measurement": "Geometric Mean HL_Lambda_z", "setting": "[2]; Cohort 4, 25 mg BID, Day 7", "value": 1.91, "unit": "h"}, {"measurement": "Geometric Mean HL_Lambda_z", "setting": "[2]; Cohort 4, 25 mg BID, Day 15", "value": 1.97, "unit": "h"}, {"measurement": "Geometric Mean Accumulation Ratio - AUCtau (Day 15/Day 1)", "setting": "[2]; Cohort 5, 40 mg BID", "value": 1.7}, {"measurement": "Geometric Mean Accumulation Ratio - Cmax (Day 15/Day 1)", "setting": "[2]; Cohort 5, 40 mg BID", "value": 1.4}, {"measurement": "Geometric Mean HL_Lambda_z", "setting": "[2]; Cohort 5, 40 mg BID, Day 1", "value": 1.78, "unit": "h"}, {"measurement": "Geometric Mean HL_Lambda_z", "setting": "[2]; Cohort 5, 40 mg BID, Day 7", "value": 1.85, "unit": "h"}, {"measurement": "Geometric Mean HL_Lambda_z", "setting": "[2]; Cohort 5, 40 mg BID, Day 15", "value": 2.34, "unit": "h"}, {"measurement": "Dose proportionality of geometric mean exposure (Cmax and AUC)", "setting": "[2]; MAD", "value": "increases slightly greater than dose-proportional"}, {"measurement": "Plasma concentration dose dependence", "setting": "[2]; MAD", "value": "increased in a dose-dependent manner"}, {"measurement": "Time to peak plasma concentration after dosing", "setting": "[2]; MAD", "value": "≤ 2", "unit": "h"}, {"measurement": "AUC(0-inf)", "setting": "[2]; human, plasma, oral, 5 mg, Cohort 1, 5 mg BID, Day 1, read-out: Geometric Mean AUCINF_obs", "value": 27, "unit": "ng·h/mL"}, {"measurement": "AUC(0-t)", "setting": "[2]; human, plasma, oral, 5 mg, Cohort 1, 5 mg BID, Day 1, read-out: Geometric Mean AUC_0-12", "value": 26, "unit": "ng·h/mL"}, {"measurement": "Cmax", "setting": "[2]; human, plasma, oral, 5 mg, Cohort 1, 5 mg BID, Day 1, read-out: Geometric Mean Cmax", "value": 10.8, "unit": "ng/mL"}, {"measurement": "Tmax", "setting": "[2]; human, plasma, oral, 5 mg, Cohort 1, 5 mg BID, Day 1, read-out: Geometric Mean Tmax", "value": 36, "unit": "min"}]}]}
